Measured values from US20130017600A1, “ISOLATION AND/OR PRESERVATION OF DENDRITIC CELLS FOR PROSTATE CANCER IMMUNOTHERAPY” (NORTHWEST BIOTHERAPEUTICS, INC., priority 1995, published 2013).

What was measured:
[1] = tested on: T cells (PBMC) obtained from prostate cancer patients; test: T cell proliferation assay (3H-TdR incorporation) with PSMA peptide alone; format: cell-based, human
Method: One hundred thousand previously frozen T cells (designated “PBMC”) obtained from a prostate cancer patient were cultured in the presence or absence of 20
PSMA peptide in complete medium containing 10% heat-inactivated human serum and 1 unit/ml IL2. One μCi/well ^3H-Thymidine was added on day 6 and cultures were harvested 18 hours later. ^3H-TdR incorporation was counted in a liquid scintillation counter. Each experiment was done in 4 replicates.
One hundred thousand T cells, i.e. PBMC obtained from HLA-A2(+) or HLA-A2(−) prostate cancer patients were cultured in the presence or absence (i.e. “medium control”) of 20 μg PSM-P2 peptide for five (5) days in a humidified, 37° C., 5% CO2 incubator. On day 6, 1 μCi ^3H-Thymidine was added to each well. After another 24 h incubation, cells were harvested and the ^3H-TdR incorporated was counted in a liquid scintillation counter. Each experiment was done in triplicate. Results are presented in FIG. 10 as average cpm and standard error of the mean.

[2] = tested on: late stage prostate cancer patients; test: Phase 1 clinical trial: T cell proliferation pre- and post-infusion (stimulation ratio); format: in vivo, human; conditions: 7 days after first infusion; all patients of the group; FIG. 11
Method: A phase 1 clinical trial has been established using five treatment groups of late stage prostate cancer patients. The groups were treated as follows: Group I, received peptide PSM-P1 having amino acid sequence LLHETDSAV (SEQ. ID. NO 1) only at 0.2, 2.0 and 20.0 μg; Group II, peptide PSM-P2 having amino acid sequence ALFDIESKV (SEQ. ID. NO. 2) only at 0.2, 2.0 and 20.0 μg; Group III, 1×10^6 (#3-4) or 5×10^6 (#1, 2) autologous dendritic cells only; Group IV, up to 2×10^7 autologous dendritic cells loaded with PSM-P1 (SEQ. ID. NO. 1); and Group V, up to 2×10^7 autologous DC's loaded with PSM-P2 (SEQ. ID. NO. 2). All treatments were delivered by infusion. Patients were monitored 7 days post-infusion and their immune function was analyzed by assessing T cell proliferation pre- and post-infusion using ^3H-TdR incorporation as described above in Section 9.

[3] = tested on: T cells proliferated as a result of the PSMA peptide; test: Flow cytometric analysis (CD4/CD8) of T cells proliferated as a result of the PSMA peptide; format: cell-based, human; conditions: expanded 5 days with 2 μM peptide and 1 unit/ml IL2; FIG. 9
Method: The T cells proliferated as a result of the PSMA peptide were expanded in culture for 5 days, in complete medium containing 2 μM PSMA peptide and 1 unit/ml Il2 for 5 days prior to harvest. One million cells were incubated for 30 minutes on ice with anti-CD4, anti-CD8 antibodies or medium alone, followed by another 30 minute incubation with fluorescein isothiocyanate labelled-2° antibody. Fluorescence-bound was analyzed in a FACScan (Becton Dickinson, San Jose, Calif.) flow cytometer as described above. The percent CD4+ and CD8+ cells were calculated. Results are illustrated in FIG. 9.

[4] = tested on: previously frozen T cells (PBMC) of a prostate cancer patient; test: T cell proliferation assay with previously cryopreserved autologous dendritic cells and purified PSMA; format: cell-based, human; conditions: previously cryopreserved DC's plus 5 μl/well purified PSMA; vs antigen alone or DC's alone; FIG. 6
Method: Dendritic cells were isolated from PBMC of a prostate cancer patient as described above in Section 6 and cultured, as described above, in Section 6, for 7 days in the presence of 500 units/ml GM-CSF and IL-4.
On day 7, the isolated DC's were harvested and cryopreserved using 90% fetal calf serum and 10% dimethylsulfoxide. The cryopreserved DC's were stored frozen for a period of time, thawed in a 37° C. water bath and transferred to a 15 ml polypropylene tube and centrifuged at 1200 rpm for 5 min. The thawed DC's were then resuspended in medium containing 10% heat-inactivated human serum and counted.
One hundred thousand previously frozen T cells obtained from peripheral blood of the same prostate cancer patient (PBMC) were cultured in the presence or absence of 10^4 DC's together with 5 μl/well purified PSMA (see Section 6.1.4 above) in a total volume of 200 μl medium containing 10% heat-inactivated human serum and 1 unit/ml IL-2. One μCi/well ^3H-Thymidine was added on day 6 and cultures were harvested 18 hours later. ^3H-TdR incorporation was counted in a liquid scintillation counter. Each experiment was done in 4 replicates. The average cpm and standard deviation are shown in the graph.

[5] = tested on: previously cryopreserved autologous T cells (PBMC) of a prostate cancer patient; test: T cell proliferation assay with extended life span (EBV-transformed) dendritic cells; format: cell-based, human; conditions: antigen presented by extended life span DC's; TT 500 ng/ml or LNCaP lysate equivalent of 10^4 cells/ml; FIG. 7

## ALFDIESKV [PSM-P2, peptide corresponding to amino acid residues 711-719 of PSMA]
[1]; 20 μg peptide, 5 days, FIG. 10
  T cell proliferation (3H-TdR incorporation), HLA-A2(−) T cells: less dramatic enhanced T cell proliferation
[1]; 20 μg peptide, 5 days, vs medium control, FIG. 10
  T cell proliferation (3H-TdR incorporation), HLA-A2(+) T cells: greatly enhanced cell proliferation

## LLHETDSAV [PSM-P1, peptide corresponding to amino acid residues 4-12 of PSMA]
[2]
  increase in T cell proliferation post- vs pre-infusion: did not demonstrate any increase in T cell proliferation
[3]
  CTL's share of the T cells stimulated by the peptide: about 41%
[1]; PBMC of a prostate cancer patient with peptide vs absence of peptide, FIG. 8
  T cell proliferation (3H-TdR incorporation): greatly enhanced T cell proliferation

## PSMA: purified prostate specific membrane antigen, immunoprecipitated from human semen with monoclonal antibody 7E11-C5
[4]
  3HTdR incorporation (T cell proliferation): highly significant increase
[5]
  3HTdR incorporation (T cell proliferation): significantly increased
